Test results taken from patent publication US9663530B2, “5-oxa-2-azabicyclo[2.2.2]OCTAN-4-yl and 5-oxa-2-azabicyclo[2.2.1]heptan-4-yl derivatives” (Hoffmann-La Roche Inc., priority 2014, dated 2017).

Key:
mouse TAAR1 = mouse TAAR1 (Mus musculus (Mouse), UniProt Q923Y8); experiment: Radioligand binding assay on mouse TAAR1; settings: mouse TAAR1 (first value of the cell); membranes of HEK-293 cells stably expressing mouse TAAR1; read-out: Ki (μM) mouse/rat
Method: (§1) Construction of TAAR Expression Plasmids and Stably Transfected Cell Lines
(§2) For the construction of expression plasmids the coding sequences of human, rat and mouse TAAR 1 were amplified from genomic DNA essentially as described by Lindemann et al.. The Expand High Fidelity PCR System (Roche Diagnostics) was used with 1.5 mM Mg^2+ and purified PCR products were cloned into pCR2.1-TOPO cloning vector (Invitrogen) following the instructions of the manufacturer. PCR products were subcloned into the pIRESneo2 vector (BD Clontech, Palo Alto, Calif.), and expression vectors were sequence verified before introduction in cell lines.
(§3) HEK293 cells (ATCC # CRL-1573) were cultured essentially as described by Lindemann et al. (2005). For the generation of stably transfected cell lines HEK293 cells were transfected with the pIRESneo2 expression plasmids containing the TAAR coding sequences (described above) with Lipofectamine 2000 (Invitrogen) according to the instructions of the manufacturer, and 24 hrs post transfection the culture medium was supplemented with 1 mg/ml G418 (Sigma, Buchs, Switzerland). After a culture period of about 10 d clones were isolated, expanded and tested for responsiveness to trace amines (all compounds purchased from Sigma) with the cAMP Biotrak Enzyme immunoassay (EIA) System (Amersham) following the non-acetylation EIA procedure provided by the manufacturer.
Radioligand Binding Assay on Mouse TAAR1
(§4) Membrane Preparation and Radioligand Binding.
HEK-293 cells stably expressing mouse TAAR1 were maintained at 37° C. and 5% CO2 in DMEM high glucose medium, containing fetal calf serum (10%, heat inactivated for 30 min at 56° C.), penicillin/streptomycin (1%), and 375 μg/ml geneticin (Gibco). Cells were released from culture flasks using trypsin/EDTA, harvested, washed twice with ice-cold PBS (without Ca^2+and Mg^2+), pelleted at 1,000 rpm for 5 min at 4° C., frozen and stored at −80° C. Frozen pellets were suspended in 20 ml HEPES-NaOH (20 mM, pH 7.4) containing 10 mM EDTA and homogenized with a Polytron (PT 6000, Kinematica) at 14,000 rpm for 20 s. The homogenate was centrifuged at 48,000×g for 30 min at 4° C. Subsequently, the supernatant was removed and discarded, and the pellet resuspended in 20 ml HEPES-NaOH (20 mM, pH 7.4) containing 0.1 mM EDTA using the Polytron (20 s at 14,000 rpm). This procedure was repeated and the final pellet resuspended in HEPES-NaOH containing 0.1 mM EDTA and homogenized using the Polytron. Typically, aliquots of 2 ml membrane portions were stored at −80° C. With each new membrane batch the dissociation constant (Kd) was determined via a saturation curve. The TAAR1 radioligand ^3[H]-(S)-4-[(ethyl-phenyl-amino)-methyl]-4,5-dihydro-oxazol-2-ylamine (described in WO 2008/098857) was used at a concentration equal to the calculated Kd value, that was usually around 0.7 nM, resulting in the binding of approximately 0.5% of the radioligand and a specific binding representing approximately 70% of the total binding. Nonspecific binding was defined as the amount of ^3[H]-(S)-4-[(ethyl-phenyl-amino)-methyl]-4,5-dihydro-oxazol-2-ylamine bound in the presence of 10 μM unlabeled ligand. All compounds were tested at a broad range of concentrations ([…]) in duplicates. The test compounds (20 […]μl/well) were transferred into a 96 deep well plate (TreffLab), and 180 μl of HEPES-NaOH (20 mM, pH 7.4) containing MgCl2 (10 mM) and CaCl2 (2 mM) (binding buffer), 300 μl of the radioligand ^3[H]-(S)-4-[(ethyl-phenyl-amino)-methyl]-4,5-dihydro-oxazol-2-ylamine at a concentration of 3.3×Kd in nM and 500 μl of the membranes (resuspended at […]) added. The 96 deep well plates were incubated for 1 hr at 4° C. Incubations were terminated by rapid filtration through Unifilter-96 plates (Packard Instrument Company) and glass filters GF/C (Perkin Elmer) presoaked for 1 hr in polyethylenimine (0.3%) and washed 3 times with 1 ml of cold binding buffer. […]

rat TAAR1 = rat TAAR1 (Rattus norvegicus (Rat), UniProt Q923Y9); experiment: Radioligand binding assay on rat TAAR1; settings: rat TAAR1 (second value of the cell); membranes of HEK-293 cells stably expressing rat TAAR1; read-out: Ki (μM) mouse/rat
rat TAAR1, sequence (Q923Y9 whole entry): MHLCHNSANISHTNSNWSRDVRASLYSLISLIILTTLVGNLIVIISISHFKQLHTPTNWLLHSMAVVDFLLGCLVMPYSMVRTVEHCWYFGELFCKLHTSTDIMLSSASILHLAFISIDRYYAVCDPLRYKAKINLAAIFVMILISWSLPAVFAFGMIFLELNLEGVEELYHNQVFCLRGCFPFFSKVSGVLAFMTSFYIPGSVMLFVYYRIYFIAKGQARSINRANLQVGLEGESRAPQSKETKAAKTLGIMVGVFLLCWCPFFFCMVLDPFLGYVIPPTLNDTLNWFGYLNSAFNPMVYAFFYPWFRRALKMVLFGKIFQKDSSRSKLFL
Method: as §1, §2, §3
Radioligand Binding Assay on Rat TAAR1
as §4
HEK-293 cells stably expressing rat TAAR1 were maintained at 37° C. and 5% CO2 in DMEM high glucose medium, containing fetal calf serum (10%, heat inactivated for 30 min at 56° C.), penicillin/streptomycin (1%), and 375 μg/ml geneticin (Gibco). Cells were released from culture flasks using trypsin/EDTA, harvested, washed twice with ice-cold PBS (without Ca^2+ and Mg^2+), pelleted at 1,000 rpm for 5 min at 4° C., frozen and stored at −80° C. Frozen pellets were suspended in 20 ml HEPES-NaOH (20 mM, pH 7.4) containing 10 mM EDTA and homogenized with a Polytron (PT 6000, Kinematica) at 14,000 rpm for 20 s. The homogenate was centrifuged at 48,000×g for 30 min at 4° C. Subsequently, the supernatant was removed and discarded, and the pellet resuspended in 20 ml HEPES-NaOH (20 mM, pH 7.4) containing 0.1 mM EDTA using the Polytron (20 s at 14,000 rpm). This procedure was repeated and the final pellet resuspended in HEPES-NaOH containing 0.1 mM EDTA and homogenized using the Polytron. Typically, aliquots of 2 ml membrane portions were stored at −80° C. With each new membrane batch the dissociation constant (Kd) was determined via a saturation curve. […] Nonspecific binding was defined as the amount of ^3[H]-(S)-4-[(ethyl-phenyl-amino)-methyl]-4,5-dihydro-oxazol-2-ylamine bound in the presence of 10 μM unlabeled ligand. All compounds were tested at a broad range of concentrations ([…]) in duplicates. The test compounds (20 […]μl/well) were transferred into a 96 deep well plate (TreffLab), and 180 μl of HEPES-NaOH (20 mM, pH 7.4) containing MgCl2 (10 mM) and CaCl2 (2 mM) (binding buffer), 300 μl of the radioligand ^3[H]-(S)-4-[(ethyl-phenyl-amino)-methyl]-4,5-dihydro-oxazol-2-ylamine at a concentration of 3.3×Kd in nM and 500 μl of the membranes (resuspended at 50 μg protein per ml) added. The 96 deep well plates were incubated for 1 hr at 4° C. Incubations were terminated by rapid filtration through Unifilter-96 plates (Packard Instrument Company) and glass filters GF/C (Perkin Elmer) presoaked for 1 hr in polyethylenimine (0.3%) and washed 3 times with 1 ml of cold binding buffer. After addition of 45 μl of Microscint 40 (PerkinElmer) the Unifilter-96 plate was sealed and after 1 hr the ratioactivity counted using a TopCount Microplate Scintillation Counter (Packard Instrument Company).

mouse TAAR1, sequence (Q923Y8 whole entry): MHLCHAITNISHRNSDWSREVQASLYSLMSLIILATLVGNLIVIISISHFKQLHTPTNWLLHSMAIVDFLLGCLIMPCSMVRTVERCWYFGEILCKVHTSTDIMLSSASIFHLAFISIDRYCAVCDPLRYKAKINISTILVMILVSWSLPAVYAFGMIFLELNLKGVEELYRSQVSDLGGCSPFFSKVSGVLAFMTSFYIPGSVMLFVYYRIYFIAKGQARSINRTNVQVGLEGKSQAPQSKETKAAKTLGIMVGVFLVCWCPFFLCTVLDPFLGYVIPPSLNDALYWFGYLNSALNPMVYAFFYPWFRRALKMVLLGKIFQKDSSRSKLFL

SMILES | Ki (mouse TAAR1) | Ki (rat TAAR1)
O=C(Nc1ccc(C[C@]23CN[C@H](CO2)C3)cc1)c1ccc(Cl)cc1 [Example 15, 4-Chloro-N-[4-[[(1S,4S)-5-oxa-2-azabicyclo[2.2.1]heptan-4-yl]methyl]phenyl]benzamide] | 0.0853 µM | 0.0505 µM
FC(F)(F)c1ccc(Nc2ccc(C[C@]34CN[C@H](CO3)C4)cc2)nc1 [Example 31, N-[4-[[(1S,4S)-5-Oxa-2-azabicyclo[2.2.1]heptan-4-yl]methyl]phenyl]-5-(trifluoromethyl)pyridin-2-amine] | 0.946 µM | 0.163 µM
Clc1ccc(Nc2ccc(C34CCC(CO3)NC4)cc2)nc1 (racemic) [Example 3, (RS)-5-Chloro-N-[4-(5-oxa-2-azabicyclo[2.2.2]octan-4-yl)phenyl]pyridin-2-amine] | 0.0141 µM | 2.46 µM
Clc1ccc(Nc2ccc([C@@]34CN[C@@H](CO3)C4)cc2)nc1 [Example 20, 5-Chloro-N-[4-[(1R,4S)-5-oxa-2-azabicyclo[2.2.1]heptan-4-yl]phenyl]pyridin-2-amine] | 0.0062 µM | 1.78 µM
O=C(Nc1ccc(C[C@@]23CN[C@@H](CO2)C3)cc1)Nc1cccc(Cl)c1 [Example 24, 1-(3-Chlorophenyl)-3-[4-[[(1R,4R)-5-oxa-2-azabicyclo[2.2.1]heptan-4-yl]methyl]phenyl]urea] | 0.0086 µM | 0.0614 µM
O=C(Nc1ccc(C[C@]23CN[C@H](CO2)C3)cc1)c1ccc(OCC2CC2)cc1 [Example 25, 4-(Cyclopropylmethoxy)-N-[4-[[(1S,4S)-5-oxa-2-azabicyclo[2.2.1]heptan-4-yl]methyl]phenyl]benzamide] | 0.168 µM | 0.0175 µM
O=C(Nc1ccc(C[C@@]23CN[C@@H](CO2)C3)cc1)Nc1ccc(C(F)(F)F)cc1 [Example 22, 1-[4-[[(1R,4R)-5-Oxa-2-azabicyclo[2.2.1]heptan-4-yl]methyl]phenyl]-3-[4-(trifluoromethyl)phenyl]urea] | 0.0126 µM | 0.0237 µM
O=C(Nc1ccc(C[C@]23CN[C@H](CO2)C3)cc1)c1cnc(C2CC2)nc1 [Example 28, 2-Cyclopropyl-N-[4-[[(1S,4S)-5-oxa-2-azabicyclo[2.2.1]heptan-4-yl]methyl]phenyl]pyrimidine-5-carboxamide] | 0.36 µM | 1.58 µM
O=C(Nc1ccc(C[C@]23CN[C@H](CO2)C3)cc1)c1ccnc(C(F)(F)F)c1 [Example 18, N-[4-[[(1S,4S)-5-Oxa-2-azabicyclo[2.2.1]heptan-4-yl]methyl]phenyl]-2-(trifluoromethyl)pyridine-4-carboxamide] | 0.238 µM | 0.354 µM

Other lines, results leading:

Ki (mouse TAAR1) | Ki (rat TAAR1) | SMILES
0.03 µM | 7.68 µM | FC(F)(F)c1cnc(Nc2ccc(C34CCC(CO3)NC4)cc2)cn1 (racemic) [Example 64, (RS)—N-[4-(5-Oxa-2-azabicyclo[2.2.2]octan-4-yl)phenyl]-5-(trifluoromethyl)pyrazin-2-amine]
0.0107 µM | 0.141 µM | FC(F)(F)c1ccc(Nc2ccc(C[C@@]34CN[C@@H](CO3)C4)cc2)nc1 [Example 63, N-[4-[[(1R,4R)-5-Oxa-2-azabicyclo[2.2.1]heptan-4-yl]methyl]phenyl]-5-(trifluoromethyl)pyridin-2-amine]
0.122 µM | 3.84 µM | FC(F)(F)c1cnc(Nc2ccc(C34CCC(CO3)NC4)cc2)nc1 (racemic) [Example 65, (RS)—N-[4-(5-Oxa-2-azabicyclo[2.2.2]octan-4-yl)phenyl]-5-(trifluoromethyl)pyrimidin-2-amine]
0.0147 µM | 0.112 µM | O=C(Nc1ccc(C[C@@]23CN[C@@H](CO2)C3)cc1)c1[nH]nc(C2CC2)c1Cl [Example 48, 4-Chloro-3-cyclopropyl-N-[4-[[(1R,4R)-5-oxa-2-azabicyclo[2.2.1]heptan-4-yl]methyl]phenyl]-1H-pyrazole-5-carboxamide]
0.0156 µM | 1.98 µM | CCOc1ccc(C(=O)Nc2ccc(C34CCC(CO3)NC4)cc2)cc1 (centres unmarked) [Example 53, 4-Ethoxy-N-[4-(5-oxa-2-azabicyclo[2.2.2]octan-4-yl)phenyl]benzamide]
0.0061 µM | 0.0212 µM | O=C(Nc1ccc(C[C@@]23CN[C@@H](CO2)C3)cc1)c1ccc(OCC2CC2)cc1 [Example 45, 4-(Cyclopropylmethoxy)-N-[4-[[(1R,4R)-5-oxa-2-azabicyclo[2.2.1]heptan-4-yl]methyl]phenyl]benzamide]
0.0522 µM | 0.0987 µM | O=C(Nc1ccc(C[C@@]23CN[C@@H](CO2)C3)cc1)c1ccnc(C(F)(F)F)c1 [Example 40, N-[4-[[(1R,4R)-5-Oxa-2-azabicyclo[2.2.1]heptan-4-yl]methyl]phenyl]-2-(trifluoromethyl)pyridine-4-carboxamide]
0.0067 µM | 0.142 µM | CCOc1ccc(C(=O)Nc2ccc(C[C@@]34CN[C@@H](CO3)C4)cc2)cc1 [Example 49, 4-Ethoxy-N-[4-[[(1R,4R)-5-oxa-2-azabicyclo[2.2.1]heptan-4-yl]methyl]phenyl]benzamide]
0.226 µM | 1.24 µM | CCc1ncc(C(=O)Nc2ccc(C[C@@]34CN[C@@H](CO3)C4)cc2)cn1 [Example 50, 2-Ethyl-N-[4-[[(1R,4R)-5-oxa-2-azabicyclo[2.2.1]heptan-4-yl]methyl]phenyl]pyrimidine-5-carboxamide]
0.0054 µM | 0.97 µM | O=C(Nc1ccc([C@@]23CN[C@@H](CO2)C3)cc1)c1ccc(Cl)cc1 [Example 54, 4-Chloro-N-[4-[(1R,4S)-5-oxa-2-azabicyclo[2.2.1]heptan-4-yl]phenyl]benzamide]
